The values below are quoted from earlier work in patent publication EP3003384B1 (Lamda Laboratories S.A., priority 2014, dated 2015).

SMILES strings stand for the structures. Structures can show the parent of a compound that is named as a salt.

For the series the following is noted: at room temperature.

For `CNCC[C@@H](Oc1ccccc1C)c1ccccc1` [atomoxetine hydrochloride], the soluble in water is 27.8 mg/mL.
